Measured values: patent publication US5726162A (priority 1996, dated 1998)

Experiments:
fungal inoculum = test: organism not typed; type: cell-based; settings: for inhibition at 50 ppm / inhibition at 100 ppm / inhibition at 5 ppm / inhibition at 1 ppm / inhibition at 10 ppm: read-out: % growth inhibition
[1] = test system: Magnaporthe grisea (Pyricularia oryzae); test: whole plant or invertebrate; type: in vivo, Magnaporthe grisea (Pyricularia oryzae) on M201 rice plants; settings: for pest or weed control at 200 ppm: Pyricularia oryzae, 144 h, read-out: % Control RB
fungal mycelium = test: organism not typed; type: cell-based; settings: read-out: % growth inhibition

## 5-chloro-1-(2-pentyn-1-yl)-2-quinolinone [Compound 149]
Fungal inoculum
  % growth inhibition: 51.5%
[1]; 200 ppm, protectant
  % Control RB: 100%

## O=C1CCC(c2ccc(Cl)cc2)=NN1c1ccccc1 [Compound 14]
Fungal inoculum
  inhibition at 50 ppm: 100%
[1]
  pest or weed control at 200 ppm: 0%

## CC#CC(C)N1N=C(c2ccc(Cl)cc2)CCC1=O (stereo not shown) [Compound 22]
Fungal inoculum
  inhibition at 100 ppm: 99.7%
[1]
  pest or weed control at 200 ppm: 75%

## CC#CCN1N=C(c2ccc(Cl)c(Cl)c2)CCC1=O [Compound 23]
Fungal inoculum
  inhibition at 5 ppm: 100%
[1]
  pest or weed control at 200 ppm: 50%

## O=C1CCC(c2ccc(Cl)cc2)=NN1CC1CC1 [Compound 25]
Fungal inoculum
  inhibition at 50 ppm: 100%
[1]
  pest or weed control at 200 ppm: 50%

## CC#CCN1N=C(c2ccc(Cl)cc2)C(C)CC1=O (stereo not shown) [Compound 26, 6-(4-chlorophenyl)-5-methyl-2-(2'-butynyl)-4,5-dihydropyridazinone]
Fungal inoculum
  inhibition at 50 ppm: 96.3%
[1]
  pest or weed control at 200 ppm: 95%

## CC#CCN1N=C(c2ccc(Cl)cc2)CC(C)C1=O (stereo not shown) [Compound 27]
Fungal inoculum
  inhibition at 50 ppm: 100%
[1]
  pest or weed control at 200 ppm: 0%

## CCC#CCN1N=C(c2ccc(Cl)c(Cl)c2)CCC1=O [Compound 28, 6-(3,4-dichlorophenyl)-2-(2'-pentynyl)-4,5-dihydropyridazinone]
Fungal inoculum
  inhibition at 1 ppm: 100%
[1]
  pest or weed control at 200 ppm: 95%

## CCCC#CCN1N=C(c2ccc(Cl)cc2)CCC1=O [Compound 29]
Fungal inoculum
  inhibition at 1 ppm: 86.1%
[1]
  pest or weed control at 200 ppm: 95%

## CC#CCN1N=C(c2ccccc2)CC(c2ccccc2)C1=O (stereo not shown) [Compound 30]
Fungal inoculum
  inhibition at 50 ppm: 41.2%

## CC#CCN1N=C(c2ccc(Br)cc2)CCC1=O [Compound 31]
Fungal inoculum
  inhibition at 5 ppm: 92.4%
[1]
  pest or weed control at 200 ppm: 90%

## CC(C)=CCN1N=C(c2ccc(Cl)cc2)CCC1=O [Compound 32]
Fungal inoculum
  inhibition at 100 ppm: 100%
[1]
  pest or weed control at 200 ppm: 0%

## CC#CCN1N=C(c2ccc(Oc3ccccc3)cc2)CCC1=O [Compound 33]
Fungal inoculum
  inhibition at 100 ppm: 27.6%
[1]
  pest or weed control at 200 ppm: 0%

## N#CCN1N=C(c2ccc(Cl)cc2)CCC1=O [Compound 35]
Fungal inoculum
  inhibition at 50 ppm: 85%
[1]
  pest or weed control at 200 ppm: 75%

## O=C1CCC(c2ccc(Cl)cc2)=NN1Cc1cccs1 [Compound 36, 6-(4-chlorophenyl)-2-(2'-thienylmethyl)-4,5-dihydropyridazinone]
Fungal inoculum
  inhibition at 50 ppm: 100%
[1]
  pest or weed control at 200 ppm: 90%

## CC#CCN1N=C(c2cccc(Cl)c2)CCC1=O [Compound 37, 6-(3-chlorophenyl)-2-(2'-butynyl)-4,5-dihydropyridazinone]
Fungal inoculum
  inhibition at 100 ppm: 100%
[1]
  pest or weed control at 200 ppm: 90%

## CC#CCN1N=C(c2cc(Cl)cc(Cl)c2)CCC1=O [Compound 38]
Fungal inoculum
  inhibition at 100 ppm: 75.2%
[1]
  pest or weed control at 200 ppm: 75%

## CC#CCN1N=C(c2ccc(Cl)c([N+](=O)[O-])c2)CCC1=O [Compound 39]
Fungal inoculum
  inhibition at 50 ppm: 94.6%
[1]
  pest or weed control at 200 ppm: 0%

## CCC#CCN1N=C(c2ccc(Cl)c([N+](=O)[O-])c2)CCC1=O [Compound 40]
Fungal inoculum
  inhibition at 5 ppm: 95.7%
[1]
  pest or weed control at 200 ppm: 0%

## CCC#CCN1N=C(c2ccc(C(F)(F)F)cc2)CCC1=O [Compound 41]
Fungal inoculum
  inhibition at 10 ppm: 89.2%
[1]
  pest or weed control at 200 ppm: 0%

## CC#CCN1N=C(c2ccc(C(F)(F)F)cc2)CCC1=O [Compound 42]
Fungal inoculum
  inhibition at 10 ppm: 91.7%

## CCC#CCN1N=C(c2cc(Cl)c(C)c(Cl)c2Cl)CCC1=O [Compound 43]
Fungal inoculum
  inhibition at 10 ppm: 22.3%
[1]
  pest or weed control at 200 ppm: 0%

## CCC#CCN1N=C(c2cc(Cl)c(C)c(Cl)c2)CCC1=O [Compound 44]
Fungal inoculum
  inhibition at 5 ppm: 87%

## C=C(C)C#CCN1N=C(c2ccc(Cl)cc2)CCC1=O [Compound 45]
Fungal inoculum
  inhibition at 10 ppm: 100%
[1]
  pest or weed control at 200 ppm: 0%

## CC(C)(C)C#CCN1N=C(c2ccc(Cl)cc2)CCC1=O [Compound 46]
Fungal inoculum
  inhibition at 100 ppm: 100%
[1]
  pest or weed control at 200 ppm: 0%

## CC(O)C#CCN1N=C(c2ccc(Cl)cc2)CCC1=O (stereo not shown) [Compound 47, 6-(4-chlorophenyl)-2-(4'hydroxy-2'-pentynyl)-4,5-dihydropyridazinone]
Fungal inoculum
  inhibition at 50 ppm: 100%
[1]
  pest or weed control at 200 ppm: 0%

## COC(C)C#CCN1N=C(c2ccc(Cl)cc2)CCC1=O (stereo not shown) [Compound 48, 6-(4-chlorophenyl)-2-(4'methoxy-2'-pentynyl)-4,5-dihydropyridazinone]
Fungal inoculum
  inhibition at 50 ppm: 100%
[1]
  pest or weed control at 200 ppm: 90%

## CC(=O)OC(C)C#CCN1N=C(c2ccc(Cl)cc2)CCC1=O (stereo not shown) [Compound 49, 6-(4-chlorophenyl)-2-(4'acetoxy-2'-pentynyl)-4,5-dihydropyridazinone]
Fungal inoculum
  inhibition at 50 ppm: 100%
[1]
  pest or weed control at 200 ppm: 90%

## O=C1CCC(c2ccc(Cl)cc2)=NN1CC#CCCO [Compound 50]
Fungal inoculum
  inhibition at 50 ppm: 100%
[1]
  pest or weed control at 200 ppm: 0%

## O=C1CCC(c2ccc(Cl)cc2)=NN1CC#CCCF [Compound 51, 6-(4-chlorophenyl)-2-(5'-fluoro-2'-pentynyl)-4,5-dihydropyridazinone]
Fungal inoculum
  inhibition at 50 ppm: 100%
[1]
  pest or weed control at 200 ppm: 100%

## C=C=CN1N=C(c2ccc(Cl)cc2)CCC1=O [Compound 52]
Fungal inoculum
  inhibition at 50 ppm: 93.7%
[1]
  pest or weed control at 200 ppm: 0%

## CC(F)C#CCN1N=C(c2ccc(Cl)cc2)CCC1=O (stereo not shown) [Compound 53]
Fungal inoculum
  inhibition at 50 ppm: 100%
[1]
  pest or weed control at 200 ppm: 100%

## COC(=O)C#CCN1N=C(c2ccc(Cl)cc2)CCC1=O [Compound 55]
Fungal inoculum
  inhibition at 50 ppm: 100%
[1]
  pest or weed control at 200 ppm: 0%

## CCC#CCN1N=C(c2ccc(C(C)(C)C)cc2)CCC1=O [Compound 57]
Fungal inoculum
  inhibition at 100 ppm: 95.7%
[1]
  pest or weed control at 200 ppm: 0%

## CC#CCN1N=C(c2ccc(CC)cc2)CCC1=O [Compound 58]
Fungal inoculum
  inhibition at 10 ppm: 39.8%
[1]
  pest or weed control at 200 ppm: 0%

## CCC#CCN1N=C(c2ccc(CC)cc2)CCC1=O [Compound 59]
Fungal inoculum
  inhibition at 10 ppm: 100%
[1]
  pest or weed control at 200 ppm: 0%

## O=C1CCC(c2ccc(Cl)cc2)=NN1CC#CI [Compound 60]
Fungal inoculum
  inhibition at 10 ppm: 100%
[1]
  pest or weed control at 200 ppm: 50%

## CCC#CCN1N=C(c2ccc(SC)cc2)CCC1=O [Compound 61]
Fungal inoculum
  inhibition at 10 ppm: 95.3%
[1]
  pest or weed control at 200 ppm: 90%

## CCC#CCN1N=C(c2ccc(Cl)c(C)c2)CCC1=O [Compound 62]
Fungal inoculum
  inhibition at 1 ppm: 100%
[1]
  pest or weed control at 200 ppm: 99%

## O=C1CCC(c2ccc(Cl)cc2)=NN1CC#Cc1cccs1 [Compound 67]
Fungal inoculum
  inhibition at 5 ppm: 83.6%

## O=C1CCC(c2ccc(Cl)cc2)=NN1CC#Cc1ccc(Cl)cc1 [Compound 68]
Fungal inoculum
  inhibition at 5 ppm: 10.4%

## O=C1CCC(c2ccc(Cl)cc2)=NN1CC=CBr [Compound 69]
Fungal inoculum
  inhibition at 50 ppm: 100%

## CCCCCCCC#CCN1N=C(c2ccc(Cl)cc2)CCC1=O [Compound 85]
Fungal mycelium
  inhibition at 100 ppm: 100%
[1]
  pest or weed control at 200 ppm: 0%

## C[Si](C)(C)C#CCN1N=C(c2ccc(Cl)cc2)CCC1=O [Compound 86]
Fungal mycelium
  inhibition at 100 ppm: 80%
[1]
  pest or weed control at 200 ppm: 0%

## CCOC(C#CCN1N=C(c2ccc(Cl)cc2)CCC1=O)OCC [Compound 87, 6-(4-chlorophenyl)-2-(4'-aldehydo-2'-butynyl)-4,5-dihydropyridazinone, diethyl acetal]
Fungal mycelium
  inhibition at 100 ppm: 100%
[1]
  pest or weed control at 200 ppm: 75%

## O=CC#CCN1N=C(c2ccc(Cl)cc2)CCC1=O [Compound 88, 6-(4-chlorophenyl)-2-(4-aldehydo-2'-butynyl)-4,5-dihydropyridazinone]
Fungal mycelium
  inhibition at 100 ppm: 80%
[1]
  pest or weed control at 200 ppm: 0%

## CCC#CCN1N=C(c2ccc(Br)cc2)CCC1=O [Compound 91]
Fungal mycelium
  inhibition at 1 ppm: 100%
[1]
  pest or weed control at 200 ppm: 90%

## C#CC#CCN1N=C(c2ccc(Cl)cc2)CCC1=O [Compound 93, 6-(4-chlorophenyl)-2-(2',4'-pentadiynyl)-4,5-dihydropyridazinone]
Fungal mycelium
  inhibition at 0.5 ppm: 100%
[1]
  pest or weed control at 200 ppm: 0%

## O=C1CCC(c2ccc(Cl)cc2)=NN1CC#CC1CCCCC1 [Compound 94]
Fungal mycelium
  inhibition at 10 ppm: 22.2%
[1]
  pest or weed control at 200 ppm: 0%

## O=C1CCC(c2ccc(Cl)cc2)=NN1CC#CCC1CCCCC1 [Compound 95]
Fungal mycelium
  inhibition at 10 ppm: 22.2%
[1]
  pest or weed control at 200 ppm: 0%

## CCCCCC#CCN1N=C(c2ccc(Cl)cc2)CCC1=O [Compound 96]
Fungal mycelium
  inhibition at 10 ppm: 94.5%
[1]
  pest or weed control at 200 ppm: 0%

## CCC#CCN1N=C(c2ccc(Cl)cc2OC)CCC1=O [Compound 99]
Fungal mycelium
  inhibition at 1 ppm: 100%
[1]
  pest or weed control at 200 ppm: 0%

## CCC#CCN1N=C(c2ccc(Cl)cc2)C(F)(F)C(F)(F)C1=O [Compound 106]
Fungal mycelium
  inhibition at 50 ppm: 81%
[1]
  pest or weed control at 200 ppm: 0%

## C#CCn1nc(-c2ccc(Cl)cc2)ccc1=O [Compound 118]
Fungal mycelium
  inhibition at 200 ppm: 100%
[1]
  pest or weed control at 200 ppm: 0%

## CCC#CCn1nc(-c2ccc(Cl)cc2)c(F)c(F)c1=O [Compound 122, 6-(4-chlorophenyl)-4,5-difluoro-2-(2'-pentynyl)-pyridazinone]
Fungal mycelium
  inhibition at 100 ppm: 84.6%
[1]
  pest or weed control at 200 ppm: 0%

## CCC#CCn1nc(-c2ccc(Cl)cc2)c(F)cc1=O [Compound 123]
Fungal mycelium
  inhibition at 100 ppm: 100%
[1]
  pest or weed control at 200 ppm: 99%

## C#CC#CCn1nc(-c2ccc(Cl)cc2)ccc1=O [Compound 125]
Fungal mycelium
  inhibition at 0.5 ppm: 89.5%
[1]
  pest or weed control at 200 ppm: 0%

## CC#CCN1N=C(c2ccncc2)CCC1=O [Compound 133]
Fungal mycelium
  inhibition at 200 ppm: 67.4%
[1]
  pest or weed control at 200 ppm: 0%

## CCC#CCN1N=C2c3ccc(Cl)cc3CC2CC1=O (stereo not shown) [Compound 143, 7-chloro-2,4,4a,5-tetrahydro-2-(2-pentyn-1-yl)-indeno[1,2-c]-pyridazin-3-one]
Fungal mycelium
  inhibition at 1 ppm: 100%
[1]
  pest or weed control at 200 ppm: 99%

## CCC#CCN1N=C(c2cc3ccccc3s2)CCC1=O [Compound 144]
Fungal inoculum
  inhibition at 1 ppm: 100%

## CCC#CCn1nc(-c2cc3ccccc3s2)ccc1=O [Compound 147]
Fungal inoculum
  inhibition at 50 ppm: 98.1%

## CCC#CCSc1ccc(-c2ccc(Cl)cc2)nn1 [Compound 152, 6-(4-chlorophenyl)-3-(2-pentyn-1-thio)-pyridazine]
Fungal mycelium
  inhibition at 10 ppm: 18.2%
[1]
  pest or weed control at 200 ppm: 0%

## CCC#CCN1N=C(c2ccc(Cl)cc2)CC=C1OC [Compound 158, 6-(4-chlorophenyl)-3-methoxy-2-(2'-pentyn-1-yl)-2,5-dihydropyridazine]
Fungal mycelium
  inhibition at 10 ppm: 100%
[1]
  pest or weed control at 200 ppm: 0%
